The experiment addresses HSA (Homo sapiens, UniProt P02768). Kind of experiment: Dansylsarcosine (DS) binding to prepared HSA, fluorescence titration. To be noted: range over samples.

Sequence of HSA (P02768 25-609): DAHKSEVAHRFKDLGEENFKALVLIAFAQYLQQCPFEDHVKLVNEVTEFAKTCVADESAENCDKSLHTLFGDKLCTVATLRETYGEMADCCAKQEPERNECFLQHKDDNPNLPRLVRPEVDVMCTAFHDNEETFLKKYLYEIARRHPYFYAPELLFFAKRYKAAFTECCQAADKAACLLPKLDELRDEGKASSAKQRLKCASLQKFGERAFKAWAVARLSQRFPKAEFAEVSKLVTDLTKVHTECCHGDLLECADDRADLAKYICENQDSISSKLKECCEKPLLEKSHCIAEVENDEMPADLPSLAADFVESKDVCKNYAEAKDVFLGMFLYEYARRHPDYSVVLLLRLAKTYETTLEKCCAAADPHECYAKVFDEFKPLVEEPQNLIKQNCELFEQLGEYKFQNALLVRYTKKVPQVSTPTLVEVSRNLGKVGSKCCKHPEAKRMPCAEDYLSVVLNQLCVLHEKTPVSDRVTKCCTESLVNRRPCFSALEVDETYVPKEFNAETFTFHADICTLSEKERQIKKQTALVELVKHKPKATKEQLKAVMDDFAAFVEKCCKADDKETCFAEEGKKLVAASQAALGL
Experimental: Prepared HSA was diluted with phosphate-buffered saline (PBS) to a final concentration of 10 µmol/L, and 100 µL of this dilution was applied to a flat-bottomed, half area, polystyrene, black 96-well plate (Greiner Bio-One, Kremsmuenster, Austria). […] The resulting fluorescence was measured using FLUOstar OPTIMA microplate reader (BMG LABTECH, Ortenberg, Germany). Fluorescence excitation and emission detection were performed at 355 nm and 460 nm, respectively. Binding curves were fitted applying non-linear regression using GraphPad Prism Software (Version 5; GraphPad Software, San Diego, CA, USA) after subtraction of non-specific binding. Dissociation constants (Kd) were calculated at DS concentrations, where half-maximal fluorescence was reached.

Usually Kd stands for the equilibrium constant for the complex coming apart. Higher therefore signals a looser complex. As for `CN(C)c1cccc2c(S(=O)(=O)N(C)CC(=O)O)cccc12` [dansylsarcosine], the Kd runs as follows: (binding of dansylsarcosine to HSA of healthy donors) 12 to 18 µM; (binding of dansylsarcosine to patients' HSA (chronic liver failure)) 13 to 28 µM.

The values above are taken from paper PMC8203801 (Communications Biology, 2021).
